Tests used:
Experiment in all cases: fitness (endpoint OD595 vs no drug) (fraction); higher = more growth
[1] = test system: S. aureus DSM 20231
Summary of the method: (§1)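 Fitness is computed from the optical density at which cultures reach stationary phase, divided by the robust mean of no-drug control wells. Any value above 1 is set to 1. Cultures started at OD595 0.01 in 384-well plates with TSB, LB Lennox or CY at 37 °C, and OD595 was read every 30 min for 14 h against a first-reading background.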

[2] = test system: S. pneumoniae D39V
Summary of the method: as §1

[3] = test system: B. subtilis 168
Summary of the method: as §1
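Further: OD595 on entry to stationary phase over no-drug wells; at most 1.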

CN(C)[C@@H]1C(O)=C(C(N)=O)C(=O)[C@@]2(O)C(O)=C3C(=O)c4c(O)ccc(Cl)c4[C@@](C)(O)[C@H]3C[C@@H]12 [Chlortetracycline] + O=C(O[C@@H]1Cc2c(O)cc(O)cc2O[C@@H]1c1cc(O)c(O)c(O)c1)c1cc(O)c(O)c(O)c1 [EGCG]
[1], first compound 0.006 µg/mL, one replicate
Settings | fitness
partner 12.5 µg/mL | 0.65
partner 25 µg/mL | 0.623
partner 50 µg/mL | 0.673

fitness
Settings | partner 6.25 µg/mL | partner 12.5 µg/mL | partner 25 µg/mL | partner 50 µg/mL
[1], first compound 0.012 µg/mL | – | 0.595 | 0.549 | –
[1], first compound 0.024 µg/mL | – | 0.455 | 0.398 | 0.332
[1], first compound 0.048 µg/mL | – | 0.138 | 0.108 | 0
[2], first compound 0.012 µg/mL | – | 0.759 | 0.805 | 0.949
[2], first compound 0.024 µg/mL | – | 0.444 | 0.454 | 0.672
[2], first compound 0.048 µg/mL | – | 0.247 | 0.212 | –
[2], first compound 0.375 µg/mL | – | 0.07 | 0.0693 | 0.0612
[2], first compound 0.75 µg/mL | – | 0.0431 | 0.0527 | 0.0692
[2], first compound 1.5 µg/mL | – | 0.0475 | 0.0473 | 0.0718
[3], first compound 0.0475 µg/mL | 0.911 | – | 0.303 | –
[3], first compound 0.095 µg/mL | 0.754 | 0.463 | – | –
[3], first compound 0.19 µg/mL | 0.484 | 0.214 | 0.0594 | –

CN(C)[C@@H]1C(O)=C(C(N)=O)C(=O)[C@@]2(O)C(O)=C3C(=O)c4c(O)ccc(Cl)c4[C@@](C)(O)[C@H]3C[C@@H]12 [Chlortetracycline] + Cc1ncc([N+](=O)[O-])n1CCO [Metronidazole]
[1], first compound 0.006 µg/mL, one replicate
Settings | fitness
partner 0.625 µg/mL | 0.807
partner 1.25 µg/mL | 0.8
partner 2.5 µg/mL | 0.833

Settings | fitness
[1], first compound 0.048 µg/mL, partner 0.625 µg/mL | 0.196
[1], first compound 0.048 µg/mL, partner 1.25 µg/mL | 0.144
[1], first compound 0.048 µg/mL, partner 2.5 µg/mL | 0.124
[2], first compound 0.012 µg/mL, partner 1.073 µg/mL | 0.958
[2], first compound 0.012 µg/mL, partner 4.29 µg/mL | 0.904
[2], first compound 0.024 µg/mL, partner 1.073 µg/mL | 0.972
[2], first compound 0.024 µg/mL, partner 4.29 µg/mL | 0.916
[2], first compound 0.048 µg/mL, partner 1.073 µg/mL | 0.855
[2], first compound 0.048 µg/mL, partner 2.145 µg/mL | 0.873
[2], first compound 0.048 µg/mL, partner 4.29 µg/mL | 0.872
[2], first compound 0.375 µg/mL, partner 1.25 µg/mL | 0.0344
[2], first compound 0.375 µg/mL, partner 2.5 µg/mL | 0.0383
[2], first compound 0.375 µg/mL, partner 5 µg/mL | 0.0668
[2], first compound 0.75 µg/mL, partner 1.25 µg/mL | 0.0404
[2], first compound 0.75 µg/mL, partner 2.5 µg/mL | 0.045
[2], first compound 0.75 µg/mL, partner 5 µg/mL | 0.0953
[2], first compound 1.5 µg/mL, partner 1.25 µg/mL | 0.0574
[2], first compound 1.5 µg/mL, partner 2.5 µg/mL | 0.0668
[2], first compound 1.5 µg/mL, partner 5 µg/mL | 0.0748
[3], first compound 0.0475 µg/mL, partner 0.625 µg/mL | 0.978
[3], first compound 0.0475 µg/mL, partner 1.25 µg/mL | 0.925
[3], first compound 0.0475 µg/mL, partner 2.5 µg/mL | 0.959
[3], first compound 0.095 µg/mL, partner 0.625 µg/mL | 0.888
[3], first compound 0.095 µg/mL, partner 1.25 µg/mL | 0.789
[3], first compound 0.095 µg/mL, partner 2.5 µg/mL | 0.822
[3], first compound 0.19 µg/mL, partner 0.625 µg/mL | 0.619
[3], first compound 0.19 µg/mL, partner 1.25 µg/mL | 0.586
[3], first compound 0.19 µg/mL, partner 2.5 µg/mL | 0.536

From the supplement of paper PMC10627819
